Experimental data: PMC12040169 (PLOS Biology, 2025)

experiment: in vitro; conditions: human, hela cells

`CN(C)C(=O)Oc1cc(CN2CCCC2)c2ccn(S(=O)(=O)c3ccccc3)c2c1` [CBK137151T] showed a viability at 28.5 h, 10 µM of 101%.

same assay, conditions: human, hela cells, % viability

First: Cc1cc(NS(=O)(=O)c2ccc(NC(=O)c3ccc(Br)cc3)cc2)no1 [CBK265371]
Second: COc1ccc(S(=O)(=O)Nc2nc(C)c(C(=O)Nc3ccc(F)cc3)s2)cc1OC [CBK050538]
The viability at 28.5 h, 10 µM of the first is lower: 95.6% for the first, 103% for the second.

Going from `COc1cc(S(=O)(=O)N2CCN(S(=O)(=O)c3cccc([N+](=O)[O-])c3)CC2)ccc1Cl` [CBK266285] to `Cc1ccc(S(=O)(=O)N2CCOCC2)cc1S(=O)(=O)N1CCOCC1` [CBK261733], the viability at 28.5 h, 10 µM rises from 89.6% to 90.8%.

Going from `CC(C)(C)CC(=O)N1CCCC1c1n[nH]cc1-c1ccncc1` (stereo not shown) [CBK283430] to `CN1CCC[C@H]1C(=O)Nc1cc(-c2ccncc2)c[nH]c1=O` [CBK116587], the viability at 28.5 h, 10 µM rises from 88.5% to 107%.

First: CC(C)(C)c1csc(NC(=O)C2CCCCC2)n1 [CBK058720]
Second: Cc1ccnc(NC(=O)C2CCCN(C(=O)OC(C)(C)C)C2)c1 (stereo not shown) [CBK305875]
The viability at 28.5 h, 10 µM of the first is higher: 98.1% for the first, 82.7% for the second.

First: COc1ccc(C(C)C)cc1-c1cnc(N)c(Nc2ccc3[nH]ccc3c2)n1 [CBK063827]
Second: O=C(CCN1C(=O)c2cccc([N+](=O)[O-])c2C1=O)Nc1cccc(-c2cnc3ccccc3n2)c1 [CBK268620]
The viability at 28.5 h, 10 µM of the first is lower: 97.1% for the first, 104% for the second.

First: O=C(N[C@H]1C[C@H]2C(=O)Nc3ccc(-c4ccsc4)cc3C(=O)N2C1)c1ccccc1 [CBK289361]
Second: COc1cccc(CN2C(=O)CC3(C2=O)C(=O)N(CC(=O)c2ccccc2)c2ccccc23)c1 (stereo not shown) [CBK075984]
The viability at 28.5 h, 10 µM of the first is higher: 91% for the first, 88.9% for the second.

Compared with `Cc1ccc2[nH]c3c(c2c1)CCNC31CCN(C(=O)Nc2c(C)noc2C)CC1` [CBK047071], `CC(=O)NCC(=O)N1CCC2(C/C=C/CNC(=O)c3ccccc3OCCNC2=O)CC1` [CBK292006] is higher in viability at 28.5 h, 10 µM: 83.1% for the first, 97.4% for the second.

First: Cc1nc(-c2cc(Cl)c(Cl)s2)cs1 [CBK009801]
Second: Cc1ccccc1C(=O)Nc1nc2ccc(S(C)(=O)=O)cc2s1 [CBK287337]
The viability at 28.5 h, 10 µM of the first is lower: 84.2% for the first, 95.1% for the second.

Compared with `CC(=O)Nc1ccc(S(=O)(=O)N2CCN(C(=O)COc3ccc(C)cc3)CC2)cc1` [CBK264268], `CC1CCN(S(=O)(=O)c2ccc(NC(=O)CCn3c(=O)oc4ccccc43)cc2)CC1` [CBK268040] is higher in viability at 28.5 h, 10 µM: 91% for the first, 97.1% for the second.

Compared with `Cc1nnc(CN(C)C2CCN(CC3CCCC3)C2)n1C` (stereo not shown) [CBK304851], `COc1nccc(N2CCC3(CCCN(CC4CCC4)C3=O)C2)c1C#N` (stereo not shown) [CBK306861] is lower in viability at 28.5 h, 10 µM: 106% for the first, 84.3% for the second.

Compared with `Cc1[nH]c(=O)[nH]c1C(=O)CCCCC(=O)O` [CBK263197], `NCCCC(C(=O)O)C(=O)c1ccccc1-c1ccccc1` (stereo not shown) [CBK286941] is higher in viability at 28.5 h, 10 µM: 94% for the first, 99.2% for the second.

Going from `COCOc1ccc(-c2nccnc2OCCc2cccs2)cc1` [CBK106911] to `O=C1NCCN1CCOc1nccnc1/C=C/c1ccccc1` [CBK106879], the viability at 28.5 h, 10 µM falls from 106% to 96%.

Going from `O=c1[nH]c(-c2cc(Cc3ccccc3Cl)ccc2O)nc2ccccc12` [CBK291220] to `O=c1[nH]cc(-c2ccccc2)cc1CNc1cccc2ncccc12` [CBK284771], the viability at 28.5 h, 10 µM falls from 98.3% to 77.1%.

First: O=C(NCCn1cncn1)C1(c2ccccc2F)CC1 [CBK283087]
Second: O=C(NCCNC(=O)c1ccccn1)c1cccc(F)c1 [CBK269613]
The viability at 28.5 h, 10 µM of the first is higher: 87% for the first, 78.3% for the second.

Going from `CC(C)CN(CC(N)=O)CC(=O)NC1(c2ccccc2)CCC1` [CBK066883T] to `O=C(Nc1ccccc1N1CCNCC1)C1(c2ccccc2)CCCCC1` [CBK028281T], the viability at 28.5 h, 10 µM rises from 88.9% to 99.9%.

Compared with `COc1cc(CNc2ccc(N3CCCCC3)cc2)ccc1OCc1ccccc1F` [CBK074472], `COc1ccc(C2(NCc3ccc(N4CCCC4=O)cc3)CC2)cc1` [CBK282834] is higher in viability at 28.5 h, 10 µM: 95.5% for the first, 103% for the second.

Going from `CCc1nn(CC(=O)N(CC)CC)c(=O)c2cc3occc3n12` [CBK283656] to `CNc1ncc(CN(C)C(=O)Cn2nc(C)c3ccccc3c2=O)cn1` [CBK307704], the viability at 28.5 h, 10 µM falls from 91% to 85.5%.

Compared with `Cc1ccccc1Nc1nc(CN2CCC3(CCCOC3)C2)cs1` (stereo not shown) [CBK304255], `Cc1cc(NC(=O)CN2CCN(c3ccccc3)CC2)c2ccccc2n1` [CBK278322G] is higher in viability at 28.5 h, 10 µM: 95% for the first, 99.5% for the second.

Compared with `COc1ccc2[nH]cc(CCNC(=O)N(C)C3CCN(C)C3)c2c1` (stereo not shown) [CBK156004], `CC(C)N1CC[C@@H]2[C@H]1C(=O)NC[C@H](CCC(=O)NCc1ccc(F)cc1)N2C` [CBK289024] is lower in viability at 28.5 h, 10 µM: 112% for the first, 91.4% for the second.

Going from `CC(C)(C)c1cc(CN2CCN(CCO)CC2)cc(C(C)(C)C)c1O` [CBK261753] to `O=C(c1sccc1Br)N1CCN(Cc2ccc3c(c2)OCO3)CC1` [CBK074730], the viability at 28.5 h, 10 µM rises from 95.4% to 100%.

Going from `N#Cc1cc(CN2CCCN(S(=O)(=O)c3ccc(C(F)(F)F)cc3Cl)CC2)ccc1F` [CBK063100] to `COc1cc(C#N)ccc1Oc1ccc([N+](=O)[O-])cc1C(F)(F)F` [CBK002544], the viability at 28.5 h, 10 µM rises from 98.8% to 104%.

First: O=C(CSc1nc2sc3c(c2c(=O)n1CCc1ccccc1)CCCC3)Nc1ccccc1 [CBK267281]
Second: CCOC(=O)CSc1nc2ccc(I)cc2c(=O)n1Cc1ccccc1 [CBK266602]
The viability at 28.5 h, 10 µM of the first is higher: 112% for the first, 107% for the second.

Going from `O=C1CC(c2ccc(C(=O)O)cc2)c2c(-c3ccc(Cl)cc3)n[nH]c2N1` (stereo not shown) [CBK286684] to `CC(=O)N1CCc2sccc2C1c1ccc(NC(=O)c2cccc(F)c2)cc1` (stereo not shown) [CBK286466], the viability at 28.5 h, 10 µM falls from 97% to 83.8%.

Compared with `CCCc1cc(C(=O)N2CCNCC2C(=O)N2CCN(C)CC2)ccn1` (stereo not shown) [CBK307619], `CN1CCN(c2c(C(=O)O)cc([N+](=O)[O-])cc2[N+](=O)[O-])CC1` [CBK261519] is higher in viability at 28.5 h, 10 µM: 97.5% for the first, 100% for the second.

First: O=S(=O)(Nc1cc(O[C@@H]2CCNC2)c2occc2c1)c1cc(F)c(Br)cc1F [CBK073943C]
Second: CCN(CC)C(=O)c1[nH]c2ccccc2c1NS(=O)(=O)c1ccc(C(F)(F)F)cc1[N+](=O)[O-] [CBK050109]
The viability at 28.5 h, 10 µM of the first is lower: 92% for the first, 103% for the second.

Compared with `O=C(O)C(Nc1nc(C(F)(F)F)nc2ccccc12)c1ccccc1` (stereo not shown) [CBK269570], `Cc1ccc(Cn2nc(NC(=O)c3ccccc3)c3ccccc32)cc1` [CBK048213] is lower in viability at 28.5 h, 10 µM: 106% for the first, 97.5% for the second.

Going from `CCOC(=O)c1c(NC(=O)CN2CCN(c3ccc(F)cc3)CC2)sc2c1CCCC2` [CBK265536] to `c1ccc2sc(-c3cc(N4CCN(CCN5CCCC5)CC4)ncn3)cc2c1` [CBK091172], the viability at 28.5 h, 10 µM rises from 88.3% to 89.3%.

First: CC(C)c1noc(N2CCC(Oc3ccc(-c4ccc(S(C)(=O)=O)cc4)cn3)CC2)n1 [CBK158821]
Second: Cc1ccc(-c2oncc2C(=O)NCc2ccc(S(N)(=O)=O)cc2)cc1 [CBK154912]
The viability at 28.5 h, 10 µM of the first is lower: 84.6% for the first, 102% for the second.

Going from `Cc1ccc(C(=O)C2(O)CCN(CCCC(c3ccc(F)cc3)c3ccc(F)cc3)CC2)cc1` [CBK025221C] to `Cn1nccc1C(=O)N1CCC2(C/C=C/COc3ccccc3C(=O)NC[C@@H](Cc3ccccc3)NC2=O)CC1` [CBK292183], the viability at 28.5 h, 10 µM rises from 90.6% to 99.8%.

Compared with `COCCN1C(=O)C2(CC(=O)N(CCNS(C)(=O)=O)C2=O)c2cc(C)ccc21` (stereo not shown) [CBK075479], `COC(=O)C1=C(C)N(CCc2ccc(OC)c(OC)c2)C(=O)/C1=C\c1ccc(O)cc1` [CBK263722] is lower in viability at 28.5 h, 10 µM: 98.2% for the first, 89.6% for the second.

First: N#CC(/N=C/c1ccc(C#Cc2ccccc2)cc1)=C(C#N)/N=C/c1ccc(C#Cc2ccccc2)cc1 [CBK262066]
Second: O=C1c2cc(-c3nc(-c4ccccc4)[nH]c3-c3ccccc3)ccc2-c2ccc([N+](=O)[O-])cc21 [CBK262613]
The viability at 28.5 h, 10 µM of the first is higher: 88% for the first, 85% for the second.

Going from `O=C(O)c1ccc(NS(=O)(=O)c2cccs2)cc1O` [CBK092145] to `COC(=O)c1ccccc1NC(=O)COc1ccc(Br)c(C)c1` [CBK263152], the viability at 28.5 h, 10 µM falls from 101% to 89.4%.

Compared with `CCN(CC)CCCOC(=O)C(CCSC)c1ccccc1C` (stereo not shown) [CBK023177C], `CCc1nc2ccc(C(=O)N3CCNC(=O)C3)cn2c1N(CCC(C)C)CCN(C)C` [CBK146255] is higher in viability at 28.5 h, 10 µM: 91.7% for the first, 92.4% for the second.

Going from `O=C(CSc1nnc(-c2ccncc2)o1)Nc1ccccc1` [CBK287586] to `c1ccc(CN2CC[C@H](c3nnc(-c4cccnc4)o3)C2)cc1` [CBK289397], the viability at 28.5 h, 10 µM falls from 91.3% to 85.6%.

Going from `Cc1nc(-c2cccnc2)[nH]c(=O)c1CCC(=O)N1CC2CCC1C2` (stereo not shown) [CBK304198] to `CN1CCC(C(=O)Nc2cnc(-c3cccc(OC(F)(F)F)c3)c(-c3cccnc3)n2)CC1` [CBK036882], the viability at 28.5 h, 10 µM rises from 82.3% to 108%.

Compared with `O=C(N/N=C/c1ccc(Cl)cc1Cl)c1nc(-c2ccccc2)cc(-c2ccccc2)n1` [CBK262814], `O=C(NCc1cccnc1)c1ncoc1-c1cccc(Cl)c1` [CBK282403] is lower in viability at 28.5 h, 10 µM: 90.1% for the first, 85.4% for the second.

Compared with `C=CCOc1ccccc1OCCCN1CCN(C)CC1` [CBK269714C], `Cn1cccc1CN1C[C@H]2CC[C@]3(NC(=O)c4ccccc4N3)[C@H]2C1` [CBK284443] is higher in viability at 28.5 h, 10 µM: 95.6% for the first, 97.7% for the second.

Compared with `CC(C)c1n[nH]c(=S)n1C1CCc2ccccc21` (stereo not shown) [CBK288374], `O=C(c1ccno1)N1Cc2ccccc2C1` [CBK200327] is higher in viability at 28.5 h, 10 µM: 87.1% for the first, 97% for the second.

Going from `Cc1cc(C)c(S(=O)(=O)N2CCC(C(=O)NNC(=S)NC3CCCC3)CC2)c(C)c1` [CBK266844] to `CCOCCC(=O)NC1CCCc2nc(N3CCC(CO)CC3)ncc21` (stereo not shown) [CBK306624], the viability at 28.5 h, 10 µM falls from 98.4% to 92.8%.

Compared with `CN(C)CC(=O)Nc1ccc2n(c1=O)C[C@H]1C[C@@H]2CN(Cc2ccccn2)C1` [CBK289206], `Cc1cc2oc(=O)cc(COC(=O)c3ccc(-n4cccn4)cc3)c2cc1Cl` [CBK296626] is lower in viability at 28.5 h, 10 µM: 107% for the first, 93.9% for the second.

Going from `CCc1c(C)nc2c(C(=O)N3CCCC3COC)cnn2c1C` (stereo not shown) [CBK162146] to `CC1(C(=O)O)CCCC2(C)c3cc(O)ccc3CCC12` (stereo not shown) [CBK027214], the viability at 28.5 h, 10 µM rises from 92.1% to 97.4%.

same assay, conditions: human, hela cells, % viability, bulk resorufin, single well

First: COc1ccc2c(c1)COC1(CCN(C(=O)C3CCC3C(=O)O)CC1)O2 (stereo not shown) [CBK060857]
Second: COc1cc(/C=C2\C(=O)NC(=O)N(c3ccc([N+](=O)[O-])cc3)C2=O)cc(Cl)c1OCC(=O)O [CBK265431]
The viability at 28.5 h, 10 µM of the first is lower: 97.1% for the first, 98.3% for the second.
